According to patent EP4692088A1, “COMPOUND ACTING AS WRN HELICASE INHIBITOR” (SHANGHAI JEYOU PHARMACEUTICAL CO., LTD., priority 2023, dated 2024):

System: HCT116 cells
Assay: Cell proliferation assay (CellTiter-Glo), HCT116
Assay type: cell-based
Conditions: Homo sapiens, 120 h, HCT-116, 5 days incubation
Method: SW48 cells were plated at a density of 1,500 cells/well, and LoVo, HCT116, and SW620 cells were plated at a density of 800 cells/well in a 96-well cell culture plate, and cultured in a 37°C incubator overnight. The test compounds, which were gradient-diluted with DMSO, were added, and after incubation for 5 days, cell viability was detected using a CellTiter-Glo kit. The CellTiter-Glo reagent was equilibrated to room temperature, and an appropriate amount was added to the cell plate, followed by shaking at room temperature for 12 min. The luminescence signal was detected using a microplate reader.
The luminescence signal values of the DMSO-treated wells and cell-free wells were used as negative and positive controls, respectively, to calculate the inhibition rate of compound on cell proliferation. The concentration-inhibition curve was fitted using the "log(inhibitor) vs. normalized response -- Variable slope" equation in GraphPad Prism 8 software to obtain the IC50. [formula]

`CCc1c(N2CCN(C(=O)c3ncnc(C)c3O)CC2)c(=O)c2nn(C3=CCOCC3)nc2n1CC(=O)Nc1ccc(C(F)(F)F)cc1Cl` [Example 4] showed an IC50 of 48 nM.
